What was measured:
[1] = tested on: unidentified adenovirus; test: Inhibitory activity of compound against Adenovirus type 2 (AD2) was evaluated in vitro; Inactive; assay type: functional
[2] = tested on: Human immunodeficiency virus; test: Inhibitory activity of compound against human immunodeficiency virus (HIV) was evaluated in vitro; Inactive; assay type: functional, Human immunodeficiency virus 1
[3] = tested on: Pichinde virus; test: Inhibitory activity of compound against pichinde virus (PIC) was evaluated in vitro; Inactive; assay type: functional
[4] = tested on: Punta Toro virus; test: Inhibitory activity of compound against punto toro virus (PT) was evaluated in vitro; Inactive; assay type: functional
[5] = tested on: Rift Valley fever virus; test: (§1) Inhibitory activity of compound against […] was evaluated in vitro; Inactive; assay type: functional
[6] = tested on: Sandfly fever Sicilian virus; test: as §1; assay type: functional
[7] = tested on: Vesicular stomatitis virus; test: Inhibitory activity of compound against Vesicular stomatitis virus (VSV) was evaluated in vitro; Inactive; assay type: functional
[8] = tested on: Yellow fever virus; test: Inhibitory activity of compound against Yellow fever virus (YF) was evaluated in vitro; Inactive; assay type: functional
[9] = tested on: Venezuelan equine encephalitis virus; test: Inhibitory activity of compound against Venezuelan equine encephalomyelitis virus (VEE) was evaluated in vitro; Inactive; assay type: functional
[10] = tested on: Japanese encephalitis virus; test: Inhibitory activity of compound against japanese encephalitis virus (JBE) was evaluated in vitro; Inactive; assay type: functional

Measured: Dose

Cc1cn(COC2CP(=O)(Oc3ccccc3)OC2C)c(=O)[nH]c1=O (stereo not given)
320 µg/mL: [1] | [2] | [3] | [4] | [5] | [6] | [7] | [8] | [9] | [10]

Cc1cn(COC(CP(=O)(O)O)C(C)O)c(=O)[nH]c1=O (stereo not given)
320 µg/mL: [1] | [2] | [3] | [4] | [5] | [6] | [7] | [8] | [9] | [10]

Cc1cn(COC(CP(=O)(O)O)C(O)CO)c(=O)[nH]c1=O (stereo not given)
320 µg/mL: [1] | [2] | [3] | [4] | [5] | [6] | [7] | [8] | [9] | [10]

CCOP(=O)(O)CC(OCn1ccc(=O)[nH]c1=O)C(C)O (stereo not given)
320 µg/mL: [1] | [2] | [3] | [4] | [5] | [6] | [7] | [8] | [9] | [10]

CCOP(=O)(C[C@H](O)[C@H](COCc1ccccc1)OCc1ccccc1)OCC
320 µg/mL: [1] | [2] | [3] | [4] | [5] | [6] | [7] | [8] | [9] | [10]

CC(O)C(CP(=O)(O)O)OCn1ccc(=O)[nH]c1=O (stereo not given)
320 µg/mL: [1] | [2] | [3] | [4] | [5] | [6] | [7] | [8] | [9] | [10]

CCOP(=O)(O)CC(OCn1cc(C)c(=O)[nH]c1=O)C(C)O (stereo not given)
320 µg/mL: [1] | [2] | [3] | [4] | [5] | [6] | [7] | [8] | [9] | [10]

CCOP(=O)(C[C@H](O)[C@H](C)OCc1ccccc1)OCC
320 µg/mL: [1] | [2] | [3] | [4] | [5] | [6] | [7] | [8] | [9] | [10]

CC(O)C(CP(=O)(O)O)OCn1ccc(N)nc1=O (stereo not given)
320 µg/mL: [1] | [2] | [3] | [4] | [5] | [6] | [7] | [8] | [9] | [10]

— ChEMBL document CHEMBL1129515, “Synthesis and biological evaluation of1',2'-seconucleo-5'- phosphonates” (1996)
